Consider 2 compounds from patent US20240226045A9, “RUMEN-PROTECTED COMPOSITIONS AND METHODS OF MAKING THE SAME” (Balchem Corporation, priority 2022, published 2024).

A short description of data set [1]: Methionine pellet pH test. Conditions: 2 hours at 39° C. It counts as physicochemical. The protocol:
The pellets were then incubated in a pH 2.0 buffer and a pH 7.0 buffer for 2 hours at 39° C. For comparison, pellets consisting of methionine were also incubated in the buffer solutions. The results are shown in FIG. 10 and in Table 26 below.

Data set [2] can be described thus: Particle size distribution of histidine hydrochloride monohydrate crystals by sieving. It counts as physicochemical. From the text: Histidine hydrochloride monohydrate crystals were sieved on Ro Tap equipment using a stack of US Mesh sieves to obtain a fraction ranging from 850 microns (20 US Mesh) to 250 microns (60 US Mesh) particle size. The fraction was chosen to remove very fine particles, which present a challenge to optimal microencapsulation.

As for `CSCC[C@H](N)C(=O)O` [Met Reference Standard (99.9% purity)], the “wt % Release” value in data set [1] (0.01M Acid Buffer, pH 2.00) is on record as 99 wt %; in data set [1] (0.05M Phosphate Buffer, pH 7.00), 99 wt %.

Turning to `Cl.N[C@@H](Cc1cnc[nH]1)C(=O)O.O`, the “Difference” value is 7.41 g in data set [2] (Pan, opening size <106 micron); 2.60 g in data set [2] (retained on US mesh sieve #20, opening size 850 micron); 34.87 g in data set [2] (retained on US mesh sieve #40, opening size 425 micron); 33.99 g in data set [2] (retained on US mesh sieve #60, opening size 250 micron); 11.88 g in data set [2] (retained on US mesh sieve #80, opening size 180 micron); 5.35 g in data set [2] (retained on US mesh sieve #100, opening size 150 micron). In data set [2] (retained on US mesh sieve #140, opening size 106 micron), the “Difference” value stood at 4.09 g. Further, the “Final (wt % of total output)” value is 7.4 wt % of total output in data set [2] (Pan, opening size <106 micron); 2.6 wt % of total output in data set [2] (US mesh sieve #20, opening size 850 micron); 34.8 wt % of total output in data set [2] (US mesh sieve #40, opening size 425 micron); 33.9 wt % of total output in data set [2] (US mesh sieve #60, opening size 250 micron); 11.9 wt % of total output in data set [2] (US mesh sieve #80, opening size 180 micron); 5.3 wt % of total output in data set [2] (US mesh sieve #100, opening size 150 micron). Also, the “Final (wt % of total output)” value in data set [2] (US mesh sieve #140, opening size 106 micron) is recorded as 4.1 wt % of total output.
